This is an account of results in US12396997B2, “Methods of treatment with an iboga alkaloid” (priority 2022, dated 2025).

In series [1] the test system is special operations veterans with history of TBI. The experiment in a line: MADRS (Montgomery-Asberg Depression Rating Scale), incl. suicidal ideation item Q10. The series is classed as in vivo, human. How it is done: With subjects in the fasting state, an intravenous infusion of 1 gram of magnesium sulfate was administered 1-2 hours prior to treatment. […] Medical staff (MD, RN, or EMT) were onsite at a ratio of at least 1 staff per 2 patients throughout treatment for monitoring and management, but no specific coaching or psychological support was provided during treatment.
Post treatment, each subject was assessed four days after treatment, one month after treatment, and, if willing, one year after treatment. The post-treatment assessments conducted at four days and at one month after treatment included neuropsychological testing, measures of PTSD, depression, anxiety, mystical experiences, functional imaging and EEG. Post-treatment assessments conducted at one year after treatment included PTSD, depression, and anxiety measures.
MADRS testing provides an indication of depressive symptoms, CAPS-5 provides an indication of PTSD and SIGH-A provides an indication of anxiety. Collectively these overlap to provide indication of mood, concentration, sleep and tension.
The MADRS is a clinician-administered 10-item scale assessing the severity of depression symptoms. […] A total score of 0-6 indicates no depression, 7-19 mild depression, 20-34 moderate depression, 35-59 severe depression, and 60+ very severe depressive symptoms (Müller, M. J., J. Affect. Disord. 77, 255-260 (2003)).

The next series relates to people. As to conditions: in vivo; cited from earlier work.
In series [2] the test system is special operations veterans with history of TBI. Nature of the series: Structural T1w MRI (FreeSurfer) regional volume and cortical thickness. It counts as in vivo, human. How it is done:
Structural imaging of the brain was also conducted on some of the subjects of Example 1. Gray matter constitutes about 40% of the brain and white matter constitutes about 60% of the brain. Gray matter contains most of the brain's neuronal cell nodes, it is fully developed once a person reaches their 20's and interprets sensor information from various parts of the body. White matter is made up of bundles which connect various gray matter areas, it develops throughout the 20's and peaks in middle age. Typical metrics analyzed in anatomical (T1-weighted. “T1w”) imaging include volume and/or shape of nuclei (e.g. caudate), volume and/or shape of ventricles of the brain, and cortical thickness (mm). These metrics can be used to study normal and abnormal neuroanatomy and are primarily used to quantify gray matter. A tool called FreeSurfer was applied to images for a T1w structural analysis (volume, cortical thickness) to adjust for bias, remove non-brain matter, segments by tissue, parcels the brain into standardized regions, and provides measurements of those regions. FreeSurfer measurements of whole brain volume, volume by tissue (gray, white, CSF), estimated intracranial volume (ICV), subcortical gray matter volume, cortical volume by region were done. […] In particular, analysis was done to determine if there was any loss in gray matter volume or cortical thickness, whether there was a loss in white matter volume or an increase in presence of white matter […].
The fMRI images were also inspected to determine the difference in volume in regional areas of the brain from baseline to one month after treatment. FIG. 8A is a bar graph showing the effect size of a change in volume in 47 brain regions indicated along the x-axis. […] The fMRI images were also inspected for whole brain thickness at baseline and one month after treatment. […] FIG. 8B is a bar graph showing the effect size of a cortical thickness change for the brain regions indicated along the x-axis, from baseline to one month after treatment. […] The right and left parahippocampal gyrus are involved in visuospatial processing, including scene perception, navigation, and emotional contextualization. The left orbitofrontal gyrus is involved in impulse control and reward valuation. The left insular cortex is associated with both the affective-perceptual and cognitive-evaluative forms of empathy, as well as awareness of hunger, pain and fatigue. The left entorhinal cortex is a widespread network hub for memory, navigation, and perception of time.

Series [3] shares this test system. The experiment in a line: Predicted brain age from MRI with brain age model. It counts as in vivo, human. The conditions noted are these: one-month post treatment; FIG. 9D. The text has this: A predictive model of normal aging defined using machine learning in healthy individuals, based on magnetic resonance imaging-derived estimates of gray matter and white matter (Id.) was applied to the MRI images from the subjects enrolled in the study of Example 1. […] There was a significant reversal of brain age from baseline to one month after treatment. The mean decrease in brain age was 1.3 years (corrected p=0.03).
At baseline, the brain age estimate for the 24 subjects was 40.89 years. […] The average decrease in brain age from baseline one month after treatment was 1.4 years.

Turning to `CCC1CC2CC3c4[nH]c5ccc(OC)cc5c4CCN(C2)C13` (centres unmarked) [ibogaine], the “Suicidal Ideation (MADR Q10), % Reporting” value in series [1] (1-mo. post, mild TBI, N 28, baseline 46%) turned out to be 7%. Also, the “Cohen's D on clinician rated psychiatric assessments (depression)” value in series [1] (following treatment vs baseline) is greater than 2. The “Remission rate for comorbid depression” value in series [1] (secondary analyses) was “around 80%”. The “People who may suffer cardiac arrest when treated” value in the series with people is “Approximately 1 in 300”. In addition, the “White matter hypointensities (corrected for cerebral white matter)” value in series [2] (baseline vs. one month post treatment, two-tailed p = 0.0789) is “Two-tailed: no significant differences”. Besides, the “Subcortical Gray Matter volume” value in series [2] (baseline vs. one month post treatment, two-tailed p = 0.0949) is “Two-tailed: no significant differences”. Moreover, the “Total Gray Matter volume” value in series [2] (baseline vs. one month post treatment, two-tailed p = 0.4755) is “Two-tailed: no significant differences”. For the same molecule, the “Cortical Gray Matter volume” value in series [2] (baseline vs. one month post treatment, two-tailed p = 0.4847) is on record as “Two-tailed: no significant differences”. Further, the “Right hemisphere mean thickness” value in series [2] (one month after treatment vs baseline, two-tailed) is “no significant difference”. For the same molecule, the “Left hemisphere mean thickness” value in series [2] (one month after treatment vs baseline, two-tailed p=0.7146) is on record as “no significant difference”. Also, in series [3], the “Estimated brain age compared to aiTBS” value is on record as “reducing in estimated brain age”.
